Data taken from ChEMBL document CHEMBL1201862, “PubChem BioAssay data set” (2004).
The source made the active and inactive calls.

Legend:
Large T antigen = Large T antigen (Simian virus 40, UniProt P03070); format: functional, Betapolyomavirus macacae;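 further: Confirmatory-stage PubChem screen for compounds that inhibit SV40 T antigen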
Phosphomannomutase 2 = target: T1, Phosphomannomutase 2 (Homo sapiens, UniProt O15305); experiment: Counter screen SAR assay for PMM2 inhibitors via a fluorescence intensity assay. [Related pubchem assays (depositor defined):AID1545, AID1574]
T1 sequence (O15305 whole entry): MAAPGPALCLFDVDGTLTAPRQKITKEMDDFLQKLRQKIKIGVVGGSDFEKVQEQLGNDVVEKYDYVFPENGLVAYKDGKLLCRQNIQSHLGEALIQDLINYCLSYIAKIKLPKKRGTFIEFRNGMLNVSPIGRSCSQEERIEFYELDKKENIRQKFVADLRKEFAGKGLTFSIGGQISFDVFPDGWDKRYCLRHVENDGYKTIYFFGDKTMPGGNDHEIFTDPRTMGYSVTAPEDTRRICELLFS

[1] = target: T2, Carboxy-terminal domain RNA polymerase II polypeptide A small phosphatase 1 (Homo sapiens, UniProt Q9GZU7); experiment: CTDSP1 inhibitors, concentration-response, biochemical, absorbance readout, ultra-high-throughput screen actives (AID 540297); format: functional
T2 sequence (Q9GZU7 whole entry): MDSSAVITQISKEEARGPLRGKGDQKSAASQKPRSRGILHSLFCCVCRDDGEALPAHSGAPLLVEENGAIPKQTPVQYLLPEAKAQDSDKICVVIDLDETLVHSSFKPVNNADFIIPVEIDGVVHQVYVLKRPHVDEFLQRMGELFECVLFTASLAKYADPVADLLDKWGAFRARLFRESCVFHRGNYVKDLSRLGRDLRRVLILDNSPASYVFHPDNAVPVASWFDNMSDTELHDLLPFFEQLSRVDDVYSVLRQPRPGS

[2] = target: Glucose-6-phosphate 1-dehydrogenase (Homo sapiens, UniProt P11413); experiment: inhibition of Homo sapiens G6PD, dose series – biochemical, fluorescence, selectivity assay for P. falciparum G6PD inhibitor project, dose response (AID 504792); format: functional
Glucose-6-phosphate 1-dehydrogenase, sequence (P11413 whole entry): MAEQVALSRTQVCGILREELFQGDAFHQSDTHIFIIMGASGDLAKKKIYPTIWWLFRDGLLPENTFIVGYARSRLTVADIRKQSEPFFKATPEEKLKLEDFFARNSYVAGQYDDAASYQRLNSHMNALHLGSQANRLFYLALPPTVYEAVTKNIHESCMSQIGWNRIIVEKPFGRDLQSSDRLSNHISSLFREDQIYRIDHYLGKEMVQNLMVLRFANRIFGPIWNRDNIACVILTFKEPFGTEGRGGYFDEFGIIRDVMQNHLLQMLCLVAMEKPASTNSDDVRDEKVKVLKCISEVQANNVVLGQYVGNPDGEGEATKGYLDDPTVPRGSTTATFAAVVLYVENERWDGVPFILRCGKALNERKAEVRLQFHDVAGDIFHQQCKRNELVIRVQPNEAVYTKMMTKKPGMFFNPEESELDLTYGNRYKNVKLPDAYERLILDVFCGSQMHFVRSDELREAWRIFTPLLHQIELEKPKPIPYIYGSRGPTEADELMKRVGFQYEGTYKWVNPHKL

[3] = target: Phosphoethanolamine/phosphocholine phosphatase (Homo sapiens, UniProt Q8TCT1); experiment: SAR assay for compounds that inhibit PHOSPHO1. [Related pubchem assays (depositor defined):AID1545, AID1565, AID1574]
Phosphoethanolamine/phosphocholine phosphatase, sequence (Q8TCT1 whole entry): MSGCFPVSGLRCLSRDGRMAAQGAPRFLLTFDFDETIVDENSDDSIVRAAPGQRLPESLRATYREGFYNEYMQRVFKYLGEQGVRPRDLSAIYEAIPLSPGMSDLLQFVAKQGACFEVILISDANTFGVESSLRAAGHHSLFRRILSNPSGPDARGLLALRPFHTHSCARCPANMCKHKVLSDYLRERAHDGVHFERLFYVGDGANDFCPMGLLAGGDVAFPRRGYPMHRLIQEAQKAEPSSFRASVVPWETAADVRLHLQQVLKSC

[4] = target: T3, Mannose-6-phosphate isomerase (Homo sapiens, UniProt P34949); experiment: phosphomannose isomerase inhibition – biochemical, fluorescence intensity, confirmation (AID 1535)
T3 sequence (P34949 whole entry): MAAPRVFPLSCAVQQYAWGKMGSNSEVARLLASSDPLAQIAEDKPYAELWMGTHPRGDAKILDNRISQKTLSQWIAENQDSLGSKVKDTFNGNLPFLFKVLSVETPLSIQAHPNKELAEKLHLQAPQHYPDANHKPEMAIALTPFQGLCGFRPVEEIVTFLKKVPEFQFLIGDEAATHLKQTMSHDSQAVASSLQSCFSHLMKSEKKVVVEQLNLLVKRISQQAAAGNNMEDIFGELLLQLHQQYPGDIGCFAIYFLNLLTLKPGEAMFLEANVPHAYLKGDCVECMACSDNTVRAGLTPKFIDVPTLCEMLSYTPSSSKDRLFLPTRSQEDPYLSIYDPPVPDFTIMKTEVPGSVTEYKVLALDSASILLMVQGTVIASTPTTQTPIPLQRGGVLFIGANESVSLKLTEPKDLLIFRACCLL

[5] = target: Eukaryotic translation initiation factor 4E (Mus musculus, UniProt P63073); experiment: blockers of eIF4G binding by eIF4E – biochemical, TR-FRET, dose response (AID 855); format: functional;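 further: potency for disrupting eIF4E binding to eIF4GI seen as loss of FRET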
Eukaryotic translation initiation factor 4E, sequence (P63073 whole entry): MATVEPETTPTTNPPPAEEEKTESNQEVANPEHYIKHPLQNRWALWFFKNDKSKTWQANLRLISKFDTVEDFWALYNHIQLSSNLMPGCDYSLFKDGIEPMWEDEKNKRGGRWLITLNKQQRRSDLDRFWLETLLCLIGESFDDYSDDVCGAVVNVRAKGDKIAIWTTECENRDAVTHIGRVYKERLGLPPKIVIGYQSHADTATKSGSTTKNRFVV

[6] = target: Female germline-specific tumor suppressor gld-1 (Caenorhabditis elegans, UniProt Q17339); experiment: blockers of GLD-1/TGE RNA complex formation – biochemical, fluorescence polarization, C. elegans, dose response (AID 2802);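 further: fluorescence polarization of labeled TGE RNA bound by purified gld-1 protein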
Female germline-specific tumor suppressor gld-1, sequence (Q17339 whole entry): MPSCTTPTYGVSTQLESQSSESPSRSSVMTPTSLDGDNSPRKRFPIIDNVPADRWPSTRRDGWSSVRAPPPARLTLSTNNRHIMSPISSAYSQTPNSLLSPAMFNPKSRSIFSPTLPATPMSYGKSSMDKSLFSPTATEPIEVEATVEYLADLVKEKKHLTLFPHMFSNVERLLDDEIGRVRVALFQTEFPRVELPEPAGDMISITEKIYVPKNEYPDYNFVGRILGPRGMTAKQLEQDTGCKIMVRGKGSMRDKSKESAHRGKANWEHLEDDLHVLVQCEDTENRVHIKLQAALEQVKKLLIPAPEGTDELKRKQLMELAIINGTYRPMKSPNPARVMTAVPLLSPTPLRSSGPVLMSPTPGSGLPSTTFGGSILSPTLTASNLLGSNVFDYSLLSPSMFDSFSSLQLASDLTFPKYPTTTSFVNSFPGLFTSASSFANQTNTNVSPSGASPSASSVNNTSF

Protein Rev = Protein Rev (Human immunodeficiency virus type 1 group M subtype B (isolate HXB2)(HIV-1), UniProt P04618); experiment: blockers of HIV Rev/RRE RNA complex – biochemical, fluorescence polarization, HIV-1, dose response (AID 434976); parameters: species or system Human immunodeficiency virus 1
Protein Rev, sequence (P04618 whole entry): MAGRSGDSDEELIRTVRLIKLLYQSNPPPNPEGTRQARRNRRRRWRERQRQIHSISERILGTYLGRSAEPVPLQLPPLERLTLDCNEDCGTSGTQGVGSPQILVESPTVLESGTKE

[7] = target: DNA dC->dU-editing enzyme APOBEC-3G (Homo sapiens, UniProt Q9HC16); experiment: Dose Response confirmation of small molecule APOBEC3G DNA Deaminase Inhibitors via a fluorescence-based single-stranded DNA deaminase assay. [Related pubchem assays (depositor defined):AID493012, AID493028]; format: functional
DNA dC->dU-editing enzyme APOBEC-3G, sequence (Q9HC16 whole entry): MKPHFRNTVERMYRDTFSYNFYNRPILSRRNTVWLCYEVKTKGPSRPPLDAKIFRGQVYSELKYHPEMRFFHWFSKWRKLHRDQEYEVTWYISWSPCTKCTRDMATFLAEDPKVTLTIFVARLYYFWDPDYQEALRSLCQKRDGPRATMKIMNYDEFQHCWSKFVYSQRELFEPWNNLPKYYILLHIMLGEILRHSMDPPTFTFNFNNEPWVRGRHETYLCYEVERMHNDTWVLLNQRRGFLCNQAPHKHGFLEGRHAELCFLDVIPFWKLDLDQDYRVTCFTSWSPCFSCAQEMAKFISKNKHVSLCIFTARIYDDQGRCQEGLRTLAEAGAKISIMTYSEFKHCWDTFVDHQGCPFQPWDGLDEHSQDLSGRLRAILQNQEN

[8] = target: DNA dC->dU-editing enzyme APOBEC-3A (Homo sapiens, UniProt P31941); experiment: A3A deaminase inhibition for selectivity – biochemical, dose response (AID 504722); format: functional
DNA dC->dU-editing enzyme APOBEC-3A, sequence (P31941 whole entry): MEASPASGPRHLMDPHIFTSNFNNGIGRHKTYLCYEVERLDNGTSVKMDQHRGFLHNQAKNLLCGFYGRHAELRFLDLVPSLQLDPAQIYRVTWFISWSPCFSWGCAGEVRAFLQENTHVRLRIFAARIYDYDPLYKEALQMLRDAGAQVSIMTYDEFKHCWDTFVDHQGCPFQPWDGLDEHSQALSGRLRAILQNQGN

[9] = NIH3T3 cell viability loss – ATP luminescence, mouse fibroblasts, counter-screen, dose response (AID 2010); format: functional, cell-based;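 further: cells exposed to compound for about 90 hours before reading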
[10] = target: T4, Alkaline phosphatase, tissue-nonspecific isozyme (Homo sapiens, UniProt P05186); experiment: TNAP enzyme inhibition by screening hits, dose response, selectivity assay for mouse IAP inhibitor project, biochemical, human TNAP, uHTS hits (AID 488906); format: functional
T4 sequence (P05186 whole entry): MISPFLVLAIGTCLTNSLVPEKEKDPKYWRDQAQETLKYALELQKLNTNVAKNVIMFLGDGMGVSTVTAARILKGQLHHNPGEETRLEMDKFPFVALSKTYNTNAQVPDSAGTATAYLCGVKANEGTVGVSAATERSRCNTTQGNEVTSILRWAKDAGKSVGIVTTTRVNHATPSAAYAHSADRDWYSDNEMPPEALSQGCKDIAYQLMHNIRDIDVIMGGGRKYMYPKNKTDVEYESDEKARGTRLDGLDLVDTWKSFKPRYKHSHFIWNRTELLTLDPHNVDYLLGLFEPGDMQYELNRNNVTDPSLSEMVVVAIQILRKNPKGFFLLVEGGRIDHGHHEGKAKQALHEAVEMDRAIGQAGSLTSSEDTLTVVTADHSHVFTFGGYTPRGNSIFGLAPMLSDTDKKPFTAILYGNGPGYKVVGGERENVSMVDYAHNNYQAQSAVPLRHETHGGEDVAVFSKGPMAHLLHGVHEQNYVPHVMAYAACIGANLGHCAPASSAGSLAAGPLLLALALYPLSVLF

[11] = target: Intestinal-type alkaline phosphatase (Homo sapiens, UniProt P09923); experiment: activation of human intestinal alkaline phosphatase – biochemical, dose response (AID 488873); format: functional
Intestinal-type alkaline phosphatase (Homo sapiens, UniProt P09923), sequence (P09923 whole entry): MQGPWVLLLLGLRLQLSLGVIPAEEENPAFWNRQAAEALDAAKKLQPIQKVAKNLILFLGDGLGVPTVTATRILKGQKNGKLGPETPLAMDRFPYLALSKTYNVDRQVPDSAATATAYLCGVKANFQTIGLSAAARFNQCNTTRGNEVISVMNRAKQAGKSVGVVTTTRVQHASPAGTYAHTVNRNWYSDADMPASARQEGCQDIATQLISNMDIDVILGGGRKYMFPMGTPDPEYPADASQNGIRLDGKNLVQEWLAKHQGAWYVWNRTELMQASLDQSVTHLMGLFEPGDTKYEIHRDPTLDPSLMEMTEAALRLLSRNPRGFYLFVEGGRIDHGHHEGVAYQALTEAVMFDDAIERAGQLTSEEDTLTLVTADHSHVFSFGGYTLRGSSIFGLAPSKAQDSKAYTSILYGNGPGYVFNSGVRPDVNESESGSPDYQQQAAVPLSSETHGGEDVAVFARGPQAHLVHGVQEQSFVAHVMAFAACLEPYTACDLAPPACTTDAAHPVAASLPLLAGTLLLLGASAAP

[12] = Trypanosoma cruzi growth suppression in host cells – NIH3T3 host cells, beta-gal luminescence, confirmation (AID 2044); format: functional, cell-based;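 further: intracellular parasites grown in NIH/3T3 mouse fibroblasts as host cells; luminescent beta-galactosidase reporter signal from transgenic T. cruzi replicating inside host cells; inhibitors lower the luminescence signal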
[13] = target: T4, Alkaline phosphatase, tissue-nonspecific isozyme
[14] = target: Intestinal-type alkaline phosphatase (Mus musculus, UniProt P24822); experiment: PubChem AID 488785; format: functional
Intestinal-type alkaline phosphatase (Mus musculus, UniProt P24822), sequence (P24822 whole entry): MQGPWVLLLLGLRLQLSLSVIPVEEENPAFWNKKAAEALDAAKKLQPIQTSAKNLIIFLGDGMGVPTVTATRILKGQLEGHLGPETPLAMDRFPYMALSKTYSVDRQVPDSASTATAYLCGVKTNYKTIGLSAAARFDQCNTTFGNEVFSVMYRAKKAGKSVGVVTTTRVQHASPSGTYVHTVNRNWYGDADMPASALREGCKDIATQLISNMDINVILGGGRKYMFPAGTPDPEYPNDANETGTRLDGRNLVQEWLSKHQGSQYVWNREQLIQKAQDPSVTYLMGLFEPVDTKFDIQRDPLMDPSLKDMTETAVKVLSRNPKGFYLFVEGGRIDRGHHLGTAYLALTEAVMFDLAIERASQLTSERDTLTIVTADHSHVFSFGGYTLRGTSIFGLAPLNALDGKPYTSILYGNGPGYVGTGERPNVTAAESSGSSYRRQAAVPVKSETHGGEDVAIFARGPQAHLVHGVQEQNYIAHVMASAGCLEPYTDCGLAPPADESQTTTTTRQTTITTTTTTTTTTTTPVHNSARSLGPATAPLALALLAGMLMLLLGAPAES

[15] = target: G-protein coupled receptor 55 (Homo sapiens, UniProt Q9Y2T6); experiment: inhibition of LPI-stimulated GPR55 beta-arrestin translocation – imaging, U2OS, beta-arrestin-GFP, LPI agonist, primary screen (AID 2013); format: functional;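 further: antagonist potency measured as reduced agonist-driven arrestin aggregation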
G-protein coupled receptor 55, sequence (Q9Y2T6 whole entry): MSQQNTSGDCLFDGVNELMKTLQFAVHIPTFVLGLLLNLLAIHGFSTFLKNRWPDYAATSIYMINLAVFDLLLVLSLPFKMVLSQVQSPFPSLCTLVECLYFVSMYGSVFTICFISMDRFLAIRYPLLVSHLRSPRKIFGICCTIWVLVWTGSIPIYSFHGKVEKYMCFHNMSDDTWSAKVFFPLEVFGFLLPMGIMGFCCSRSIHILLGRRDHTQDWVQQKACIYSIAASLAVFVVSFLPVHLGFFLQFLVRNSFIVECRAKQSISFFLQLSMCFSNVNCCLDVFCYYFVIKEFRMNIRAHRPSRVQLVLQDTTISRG

Large T antigen, sequence (P03070 whole entry): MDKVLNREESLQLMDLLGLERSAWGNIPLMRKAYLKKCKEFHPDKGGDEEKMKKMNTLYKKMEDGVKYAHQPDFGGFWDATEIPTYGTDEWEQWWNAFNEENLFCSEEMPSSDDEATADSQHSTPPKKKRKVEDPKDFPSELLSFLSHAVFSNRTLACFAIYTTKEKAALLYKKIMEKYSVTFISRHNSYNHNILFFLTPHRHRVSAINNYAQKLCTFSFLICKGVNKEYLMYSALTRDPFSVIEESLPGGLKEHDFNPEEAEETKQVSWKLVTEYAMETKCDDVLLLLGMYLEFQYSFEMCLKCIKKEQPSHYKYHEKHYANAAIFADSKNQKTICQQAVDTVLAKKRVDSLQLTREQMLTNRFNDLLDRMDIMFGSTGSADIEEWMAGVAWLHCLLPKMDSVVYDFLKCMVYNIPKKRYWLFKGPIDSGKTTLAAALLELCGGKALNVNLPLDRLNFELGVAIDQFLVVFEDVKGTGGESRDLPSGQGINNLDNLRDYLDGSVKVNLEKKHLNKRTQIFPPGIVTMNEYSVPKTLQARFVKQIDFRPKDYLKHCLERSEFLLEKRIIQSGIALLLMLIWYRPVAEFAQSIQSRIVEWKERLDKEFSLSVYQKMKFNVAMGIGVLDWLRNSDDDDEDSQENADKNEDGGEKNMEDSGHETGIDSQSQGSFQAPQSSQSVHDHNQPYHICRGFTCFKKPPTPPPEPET

O=c1c2ccccc2sn1-c1cc(S(=O)(=O)N2CCOCC2)ccc1N1CCCC1
IC50 (Large T antigen): 11.7 µM (active) | IC50 (Phosphomannomutase 2): 29.8 µM (active) | IC50 [1]: 11 µM (active) | IC50 [2]: 14.3 µM (active) | IC50 [3]: 10.7 µM (inactive) | IC50 [4]: 7.51 µM (active) | IC50 [5]: 34.5 µM (inactive)

CC(C)CCN(C(=O)CCCSc1nc2ccccc2[nH]1)c1c(N)n(Cc2ccccc2)c(=O)[nH]c1=O
IC50 [6]: 3.12 µM (active) | IC50 (Protein Rev): > 8.38 µM (active)

COc1ccc(OCc2nnc(S)n2Cc2ccco2)cc1
IC50 [7]: 3.88 µM (active) | IC50 [8]: > 100 µM (inactive)

CCOC(=O)c1ccc(N2CCN(c3ccccc3F)CC2)c(NC(=O)Nc2cccc(OC)c2)c1
EC50 [9]: > 60 µM (inconclusive) | IC50 [10]: > 100 µM (inactive) | EC50 [11]: > 100 µM (inactive) | EC50 [12]: 1.39 µM (active) | EC50 [13]: > 100 µM (not active) | IC50 [14]: 6.54 µM (active)

CC(=O)Oc1ccc2ccccc2c1C(NC(=O)Cc1ccccc1)c1ccccc1 (stereo not drawn)
IC50 [15]: 1.27 µM (active)
